In patent US20160202242A1, “CELL DEATH-INDUCING AGENT, CELL GROWTH-INHIBITING AGENT, AND PHARMACEUTICAL COMPOSITION FOR TREATMENT OF DISEASE CAUSED BY ABNORMAL CELL GROWTH” (Nitto Denko Corporation, priority 2014, published 2016):
d = 2'-deoxy (DNA); r = 2'-OH (RNA)

Columns and labels:
Type in all cases: cell-based, human
M7609 cells = experiment: Senescence beta-galactosidase staining 13 days after inoculation, GST-π knocked down three times; conditions: GST-π siRNA 30 nM added three times
Description: (§1) As examples of cancer cells, 1×10^5 M7609 cells (human colorectal cancer cells having KRAS mutation) and PANC-1 cells (human pancreatic cancer cells having KRAS mutation) were inoculated to 6 cm Petri dishes and cultured for 18 hours in Roswell Park Memorial Institute 1640 (RPMI 1640, Sigma-Aldrich Corp.) supplemented with 10% fetal bovine serum (FBS) and 0.5% L-glutamine. The culture conditions were 37° C. and 5% CO2, unless otherwise specified. Moreover, as an example of cancer cells, 0.5×10^5 A549 cells (human lung cancer cells having KRAS mutation) were inoculated to a 6 cm Petri dish and cultured for 18 hours in a Dulbecco's modified Eagle's medium (DMEM, Sigma-Aldrich Corp.) supplemented with 10% FBS and 1% L-glutamine. Furthermore, as an example of cancer cells, 1×10^5 MIA PaCa-2 cells (human pancreatic cancer cell having KRAS mutation) were inoculated to a 6 cm Petri dish and cultured for 18 hours in DMEM supplemented with 10% FBS and 1% L-glutamine. Furthermore, as an example of cancer cells, 0.5×10^5 HCT116 cells (human colorectal cancer cells having KRAS mutation) were inoculated to a 6 cm Petri dish and cultured for 18 hours in McCoy's 5A Medium (McCoy, Sigma-Aldrich Corp.) supplemented with 10% FBS and 0.5% L-glutamine.
Whether the cell senescence as shown in FIGS. 6 to 9 was could be induced by knocking down GST-π was tested using the M7609 cells. […]

[1] = test system: PANC-1, MIA PaCa-2, or A549 cells; experiment: Number of cells counted after 5 days of culture, single siRNA transfection; conditions: siRNA 50 nM plus control siRNA 50 nM
Description: as §1, with “Furthermore, as an example of cancer cells, 0.5×10^5 HCT116 cells (human colorectal cancer cells having KRAS mutation) were inoculated to a 6 cm Petri dish and cultured for 18 hours in McCoy's 5A Medium (McCoy, Sigma-Aldrich Corp.) supplemented with 10% FBS and 0.5% L-glutamine.” left out
Meanwhile, the influence of GST-π siRNA and/or P21 siRNA on the number of cells was tested. […] After culture for 5 days without the replacement of the medium, the cells were dissociated and collected from the Petri dish by trypsin treatment, and the number of cells was counted.

P21 mRNA [2] = experiment: P21 mRNA level quantified every day to the 4th day after siRNA addition; conditions: A549 or MIA PaCa-2 cells, siRNA 50 nM
Description: as §1, with “Furthermore, as an example of cancer cells, 0.5×10^5 HCT116 cells (human colorectal cancer cells having KRAS mutation) were inoculated to a 6 cm Petri dish and cultured for 18 hours in McCoy's 5A Medium (McCoy, Sigma-Aldrich Corp.) supplemented with 10% FBS and 0.5% L-glutamine.” left out
Moreover, as for the case where GST-π siRNA or control siRNA at a final concentration of 50 nM was added to each of the Petri dishes containing the A549 cells or the MIA PaCa-2 cells, the P21 mRNA level was similarly quantified every day from the day of addition of GST-π siRNA or control siRNA to the 4th day.

P21 mRNA [3] = experiment: P21 mRNA level by quantitative PCR 1 day after siRNA transfection; conditions: PANC-1, MIA PaCa-2, or A549 cells, GST-π siRNA 50 nM or 100 nM, vs control siRNA
Description: As examples of cancer cells, 1×10^5 M7609 cells (human colorectal cancer cells having KRAS mutation) and PANC-1 cells (human pancreatic cancer cells having KRAS mutation) were inoculated to 6 cm Petri dishes and cultured for 18 hours in Roswell Park Memorial Institute 1640 (RPMI 1640, Sigma-Aldrich Corp.) supplemented with 10% fetal bovine serum (FBS) and 0.5% L-glutamine. The culture conditions were 37° C. and 5% CO2, unless otherwise specified. Moreover, as an example of cancer cells, 0.5×10^5 A549 cells (human lung cancer cells having KRAS mutation) were inoculated to a 6 cm Petri dish and cultured for 18 hours in a Dulbecco's modified Eagle's medium (DMEM, Sigma-Aldrich Corp.) supplemented with 10% FBS and 1% L-glutamine. […]
GST-π siRNA and P21 siRNA each at a final concentration of 50 nM, GST-π siRNA or P21 siRNA at a final concentration of 50 nM (both added with control siRNA at a final concentration of 50 nM), or GST-π siRNA at a final concentration of 100 nM (without the addition of control siRNA) were added to each of the Petri dishes containing the PANC-1, MIA PaCa-2, or A549 cells. […] After culture for 1 day without the replacement of the medium, the GST-π mRNA level and the P21 mRNA level were quantified by quantitative PCR using 7300 Real Time PCR System (Applied Biosystems, Inc.).

[4] = test system: A549 cells, MIA PaCa-2 cells, PANC-1 cells, and HCT116 cells; experiment: Phase difference images of cells after knockdown three times; conditions: knocked down three times; 7 days after inoculation
Description: As examples of cancer cells, 1×10^5 M7609 cells (human colorectal cancer cells having KRAS mutation) and PANC-1 cells (human pancreatic cancer cells having KRAS mutation) were inoculated to 6 cm Petri dishes and cultured for 18 hours in Roswell Park Memorial Institute 1640 (RPMI 1640, Sigma-Aldrich Corp.) supplemented with 10% fetal bovine serum (FBS) and 0.5% L-glutamine. The culture conditions were 37° C. and 5% CO2, unless otherwise specified. […]
First, for the PANC-1 cells, the MIA PaCa-2 cells, or the HCT116 cells, GST-π siRNA and P21 siRNA each at a final concentration of 25 nM, or GST-π siRNA or P21 siRNA at a final concentration of 25 nM (all added with control siRNA at a final concentration of 25 nM) were added to each of the Petri dishes, while for the A549 cells, GST-π siRNA and P21 siRNA each at a final concentration of 50 nM, or GST-π siRNA or P21 siRNA at a final concentration of 50 nM (added with control siRNA at a final concentration of 50 nM) were added to each of the Petri dishes. […] Seven days after the cell inoculation, the cells were dissociated and collected from the Petri dish by trypsin treatment, and the number of cells was counted. […]

| Substance | cell senescence (flat and large cells, blue color development by galactosidase staining) (M7609 cells) | number of cells, each siRNA alone [1] | expression level of P21 mRNA over time (P21 mRNA [2]) | amount of P21 mRNA (P21 mRNA [3]) | cell morphology / cell senescence-like phenotype in phase difference image [4] |
| --- | --- | --- | --- | --- | --- |
| GST-π siRNA: siRNA against GST-π; sense GGGAGGCAAGACCUUCAUUtt (SEQ ID NO: 31), antisense AAUGAAGGUCUUGCCUCCCtg (SEQ ID NO: 32) (sense GGGAGGCAAGACCUUCAUUTT; antisense AAUGAAGGUCUUGCCUCCCTG; sugars from the 5' end r19 d2, backbone not given here) | cell senescence was evoked | the number of cells cannot be decreased with respect to the number of inoculated cells, though cell growth is inhibited | increased over time | increased | became flat and large cells |
| P21 siRNA: siRNA against P21; sense UCCUAAGAGUGCUGGGCAUtt (SEQ ID NO: 33), antisense AUGCCCAGCACUCUUAGGAtt (SEQ ID NO: 34) (sense UCCUAAGAGUGCUGGGCAUTT; antisense AUGCCCAGCACUCUUAGGATT; sugars from the 5' end r19 d2, backbone not given here) |  | the number of cells cannot be decreased with respect to the number of inoculated cells, though cell growth is inhibited |  |  |  |
